Our source for the IC50 values is US5869476A, “Pyrimidinone derivatives” (Boryung Pharmaceutical Co., Ltd., priority 1994, dated 1999).

Structures are written as SMILES.

The target of this test is T1, angiotensin II receptor (Oryctolagus cuniculus, UniProt P34976).
T1 construct: The aorta was cut into 3~4 mm to form ring samples; from tissue; host or cells: isolated aorta rings of New Zealand White rabbits
T1 sequence (P34976 1-359): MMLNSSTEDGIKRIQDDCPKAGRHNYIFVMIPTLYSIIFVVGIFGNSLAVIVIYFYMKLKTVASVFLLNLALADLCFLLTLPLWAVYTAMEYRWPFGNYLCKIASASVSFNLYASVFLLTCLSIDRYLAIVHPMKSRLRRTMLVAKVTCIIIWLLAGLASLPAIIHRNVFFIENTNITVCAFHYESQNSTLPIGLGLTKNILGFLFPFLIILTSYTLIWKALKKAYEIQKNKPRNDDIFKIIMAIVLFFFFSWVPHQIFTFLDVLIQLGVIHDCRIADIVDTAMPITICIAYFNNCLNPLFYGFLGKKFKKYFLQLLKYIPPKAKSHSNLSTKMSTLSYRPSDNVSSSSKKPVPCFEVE
Description: inhibition of angiotensin II induced contraction of isolated rabbit aorta rings. The format is cell-based, New Zealand White rabbit. To be noted: test compound incubated 20 minutes, 37° C., pH 7.4, read-out: IC50 (concentration being required to inhibit angiotensin II induced contraction by 50%). A digest of the protocol: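 Rabbit aortic rings in Krebs-Henseleit, 37 °C, pH 7.4, 2 g tension, contracted with Angiotensin II […] three times, the third serving as control. Compound incubated 20 min before rechallenge; IC50 is concentration inhibiting Angiotensin II contraction by 50%.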
In the case of `CCCCc1nc(C)c(CCC(=O)N(CC)CC)c(=O)n1Cc1ccc(-c2ccccc2-c2nnn[nH]2)cc1` [Compound 27, 2-n-butyl-5-(2'-diethylaminocarbonylethyl)-6-methyl-3-[[2'-(1H-tetrazol-5-yl)biphenyl-4-yl]methyl]-pyrimidin-4-(3H )-one], the IC50 was determined as 30.8 nM.
On to `CCCCc1nc(=O)c(CC(=O)O)c(C)n1Cc1ccc(-c2ccccc2-c2nnn[nH]2)cc1` [Compound 20, 2-n-butyl-5-carboxymethyl-6-methyl-1-[[2'-(1H-tetrazol-5-yl)-biphenyl-4-yl]methyl]-pyrimidin-4-(1H)-one], for which the IC50 turned out to be 8.53 nM.
Take `CCCCc1nc(C)c(CC(=O)N2CC=CC2)c(=O)n1Cc1ccc(-c2ccccc2-c2nn[nH]n2)cc1` [Compound 44, 2-n-butyl-5-(3'-pyrrolinocarbonylmethyl)-6-methyl-3-[[2'-(1H-tetrazol-5-yl)biphenyl-4-yl]methyl]-pyrimidin-4-(3H)-one]: the IC50 stood at 2.04 nM.
As to `CCCCc1nc(C)c(CCC(=O)N2CCCCC2C(=O)OCC)c(=O)n1Cc1ccc(-c2ccccc2-c2nn[nH]n2)cc1` (centres unmarked) [Compound 67, 2-n-butyl-5-[2'-(2"-ethoxycarbonylpiperidino)carbonylethyl]-6-methyl-3-[[2'-(1H-tetrazol-5-yl)biphenyl-4-yl]methyl]-pyrimidin-4-(3H)-one], the IC50 was 30.4 nM.
The value for `CCCCc1nc(C)c(CCC(=O)N2CCOCC2)c(=O)n1Cc1ccc(-c2ccccc2-c2nn[nH]n2)cc1` [Compound 78, 2-n-butyl-5-(2'-morpholinocarbonylethyl)-6-methyl-3-[[2'-(1H-tetrazol-5-yl)biphenyl-4-yl]methyl]-pyrimidin-4-(3H)-one] was 5.22 nM; that for `CCCCc1nc(C)c(CCC(=O)NCc2ccccc2)c(=O)n1Cc1ccc(-c2ccccc2-c2nnn[nH]2)cc1` [Compound 28, 2-n-butyl-5-(2'-benzylaminocarbonylethyl)-6-methyl-3-[[2'-(1H-tetrazol-5-yl)biphenyl-4-yl]methyl]-pyrimidin-4-(3H)-one] was 92.3 nM.
The value for `CCCCc1nc(C)c(CC(=O)N2CCCC2)c(=O)n1Cc1ccc(-c2ccccc2-c2nnn[nH]2)cc1` [Compound 40, 2-n-butyl-5-pyrrolidinocarbonylmethyl-6-methyl-3-[[2'-(1H-tetrazol-5-yl)biphenyl-4-yl]methyl]-pyrimidin-4-(3H)-one] was 2.74 nM; that for `CCc1nc(C)c(CC(=O)O)c(=O)n1Cc1ccc(-c2ccccc2-c2nnn[nH]2)cc1` [Compound 2, 2-ethyl-5-carboxymethyl-6-methyl-3-[[2'-(1H-tetrazol-5-yl)-biphenyl-4-yl]methyl]-pyrimidin-4-(3H)-one] was 14.2 nM.
